Laboratory results published in the supplement of paper PMC10307832.

Tests used:
Assay in all cases: relative viability (nuclei count vs DMSO), 5 days (fraction); higher = more cells survive
CUDC-101 + Navitoclax = compound: C#Cc1cccc(Nc2ncnc3cc(OC)c(OCCCCCCC(=O)NO)cc23)c1 [CUDC-101] + CC1(C)CCC(c2ccc(Cl)cc2)=C(CN2CCN(c3ccc(C(=O)NS(=O)(=O)c4ccc(N[C@H](CCN5CCOCC5)CSc5ccccc5)c(S(=O)(=O)C(F)(F)F)c4)cc3)CC2)C1 [Navitoclax] (partner 0.5 µM)
Summary of the method: (§1)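 After 5 days of treatment, lung cancer cells in 1536-well plates were fixed and stained in a single step (final 0.05% Triton X-100, 1% formaldehyde, 1 ug/ml Hoechst) and their nuclei counted on 4× images. Treatment had been applied by pin tool the day after seeding as one drug alone or as a fixed anchor-drug dose with five library-drug doses (not always all listed) in √10 steps. Relative viability is the nuclei count of treated wells divided by that of vehicle wells, and values are medians of duplicate plates.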

Vandetanib + Olaparib = compound: COc1cc2/c(=N/c3ccc(Br)cc3F)nc[nH]c2cc1OCC1CCN(C)CC1 [Vandetanib] + O=C(c1cc(Cc2n[nH]c(=O)c3ccccc23)ccc1F)N1CCN(C(=O)C2CC2)CC1 [Olaparib] (partner 8 µM)
Summary of the method: as §1

NVP-TAE684 + AZD7762 = compound: COc1cc(N2CCC(N3CCN(C)CC3)CC2)ccc1Nc1ncc(Cl)c(Nc2ccccc2S(=O)(=O)C(C)C)n1 [NVP-TAE684] + NC(=O)Nc1cc(-c2cccc(F)c2)sc1C(=O)N[C@H]1CCCNC1 [AZD7762] (partner 0.2 µM)
Summary of the method: as §1

NVP-TAE684 + OSI-027 = compound: COc1cc(N2CCC(N3CCN(C)CC3)CC2)ccc1Nc1ncc(Cl)c(Nc2ccccc2S(=O)(=O)C(C)C)n1 [NVP-TAE684] + COc1cccc2cc(-c3nc([C@H]4CC[C@H](C(=O)O)CC4)n4ncnc(N)c34)[nH]c12 [OSI-027] (partner 0.5 µM)
Summary of the method: as §1

NVP-TAE684 + Linsitinib = compound: COc1cc(N2CCC(N3CCN(C)CC3)CC2)ccc1Nc1ncc(Cl)c(Nc2ccccc2S(=O)(=O)C(C)C)n1 [NVP-TAE684] + C[C@]1(O)C[C@@H](c2nc(-c3ccc4ccc(-c5ccccc5)nc4c3)c3c(N)nccn32)C1 [Linsitinib] (partner 1 µM)
Summary of the method: as §1

Cell Line: ChaGo-K-1
- relative viability (CUDC-101 + Navitoclax; first compound 0.01 µM): 1.34
- relative viability (CUDC-101 + Navitoclax; first compound 0.03162 µM): 1.48
- relative viability (CUDC-101 + Navitoclax; first compound 0.1 µM): 1.04
- relative viability (CUDC-101 + Navitoclax; first compound 0.3162 µM): 1.06
- relative viability (CUDC-101 + Navitoclax; first compound 1 µM): 0.92
- relative viability (Vandetanib + Olaparib; first compound 0.02 µM): 0.415
- relative viability (Vandetanib + Olaparib; first compound 0.06325 µM): 0.427
- relative viability (Vandetanib + Olaparib; first compound 0.2 µM): 0.161
- relative viability (Vandetanib + Olaparib; first compound 0.6325 µM): 0.411
- relative viability (Vandetanib + Olaparib; first compound 2 µM): 0.438
- relative viability (NVP-TAE684 + AZD7762; first compound 0.2 µM): 1.02
- relative viability (NVP-TAE684 + AZD7762; first compound 0.6325 µM): 0.836
- relative viability (NVP-TAE684 + OSI-027; first compound 0.2 µM): 0.589
- relative viability (NVP-TAE684 + OSI-027; first compound 0.6325 µM): 0.546
- relative viability (NVP-TAE684 + OSI-027; first compound 2 µM): 0.416

Cell Line: EBC-1
- relative viability (CUDC-101 + Navitoclax; first compound 0.01 µM): 0.41
- relative viability (CUDC-101 + Navitoclax; first compound 0.03162 µM): 0.377
- relative viability (CUDC-101 + Navitoclax; first compound 0.1 µM): 0.365
- relative viability (CUDC-101 + Navitoclax; first compound 0.3162 µM): 0.184
- relative viability (CUDC-101 + Navitoclax; first compound 1 µM): 0.144
- relative viability (NVP-TAE684 + Linsitinib; first compound 0.2 µM): 0.784
- relative viability (NVP-TAE684 + Linsitinib; first compound 0.6325 µM): 0.785
- relative viability (NVP-TAE684 + Linsitinib; first compound 2 µM): 0.745
- relative viability (Vandetanib + Olaparib; first compound 0.02 µM): 0.698
- relative viability (Vandetanib + Olaparib; first compound 0.06325 µM): 0.603
- relative viability (Vandetanib + Olaparib; first compound 0.2 µM): 0.69
- relative viability (Vandetanib + Olaparib; first compound 0.6325 µM): 0.782
- relative viability (Vandetanib + Olaparib; first compound 2 µM): 0.693

Cell Line: EKVX
- relative viability (CUDC-101 + Navitoclax; first compound 0.01 µM): 0.972
- relative viability (CUDC-101 + Navitoclax; first compound 0.03162 µM): 0.977
- relative viability (CUDC-101 + Navitoclax; first compound 0.1 µM): 0.874
- relative viability (CUDC-101 + Navitoclax; first compound 0.3162 µM): 0.941
- relative viability (CUDC-101 + Navitoclax; first compound 1 µM): 0.593
- relative viability (NVP-TAE684 + Linsitinib; first compound 0.2 µM): 0.896
- relative viability (NVP-TAE684 + Linsitinib; first compound 0.6325 µM): 0.897
- relative viability (NVP-TAE684 + Linsitinib; first compound 2 µM): 0.709
- relative viability (Vandetanib + Olaparib; first compound 0.02 µM): 0.854
- relative viability (Vandetanib + Olaparib; first compound 0.06325 µM): 0.761
- relative viability (Vandetanib + Olaparib; first compound 0.2 µM): 0.904
- relative viability (Vandetanib + Olaparib; first compound 0.6325 µM): 0.813
- relative viability (Vandetanib + Olaparib; first compound 2 µM): 0.563
- relative viability (NVP-TAE684 + AZD7762; first compound 0.2 µM): 0.634
- relative viability (NVP-TAE684 + AZD7762; first compound 0.6325 µM): 0.677
- relative viability (NVP-TAE684 + AZD7762; first compound 2 µM): 0.375
- relative viability (NVP-TAE684 + OSI-027; first compound 0.2 µM): 0.577
- relative viability (NVP-TAE684 + OSI-027; first compound 0.6325 µM): 0.698
- relative viability (NVP-TAE684 + OSI-027; first compound 2 µM): 0.521

Cell Line: EMC-BAC-2
- relative viability (CUDC-101 + Navitoclax; first compound 0.01 µM): 1.15
- relative viability (CUDC-101 + Navitoclax; first compound 0.03162 µM): 1.19
- relative viability (CUDC-101 + Navitoclax; first compound 0.1 µM): 1.19
- relative viability (CUDC-101 + Navitoclax; first compound 0.3162 µM): 1.1
- relative viability (CUDC-101 + Navitoclax; first compound 1 µM): 0.923
- relative viability (NVP-TAE684 + Linsitinib; first compound 0.2 µM): 0.771
- relative viability (NVP-TAE684 + Linsitinib; first compound 2 µM): 0.51
- relative viability (Vandetanib + Olaparib; first compound 0.02 µM): 0.509
- relative viability (Vandetanib + Olaparib; first compound 0.06325 µM): 0.478
- relative viability (Vandetanib + Olaparib; first compound 0.2 µM): 0.498
- relative viability (Vandetanib + Olaparib; first compound 0.6325 µM): 0.492
- relative viability (Vandetanib + Olaparib; first compound 2 µM): 0.531
- relative viability (NVP-TAE684 + AZD7762; first compound 0.2 µM): 1.12
- relative viability (NVP-TAE684 + AZD7762; first compound 2 µM): 0.536
- relative viability (NVP-TAE684 + OSI-027; first compound 0.2 µM): 0.364
- relative viability (NVP-TAE684 + OSI-027; first compound 0.6325 µM): 0.344
- relative viability (NVP-TAE684 + OSI-027; first compound 2 µM): 0.324

Cell Line: EPLC-272H
- relative viability (CUDC-101 + Navitoclax; first compound 0.01 µM): 1.42
- relative viability (CUDC-101 + Navitoclax; first compound 0.03162 µM): 1.2
- relative viability (CUDC-101 + Navitoclax; first compound 0.1 µM): 1.15
- relative viability (CUDC-101 + Navitoclax; first compound 0.3162 µM): 0.871
- relative viability (CUDC-101 + Navitoclax; first compound 1 µM): 0.59
- relative viability (NVP-TAE684 + Linsitinib; first compound 0.2 µM): 1.08
- relative viability (NVP-TAE684 + Linsitinib; first compound 2 µM): 1.3
- relative viability (Vandetanib + Olaparib; first compound 0.02 µM): 0.969
- relative viability (Vandetanib + Olaparib; first compound 0.06325 µM): 0.526
- relative viability (Vandetanib + Olaparib; first compound 0.2 µM): 1.19
- relative viability (Vandetanib + Olaparib; first compound 0.6325 µM): 0.854
- relative viability (Vandetanib + Olaparib; first compound 2 µM): 0.49
- relative viability (NVP-TAE684 + AZD7762; first compound 0.2 µM): 0.175
- relative viability (NVP-TAE684 + AZD7762; first compound 0.6325 µM): 0.175
- relative viability (NVP-TAE684 + AZD7762; first compound 2 µM): 0.208
- relative viability (NVP-TAE684 + OSI-027; first compound 0.2 µM): 0.227
- relative viability (NVP-TAE684 + OSI-027; first compound 0.6325 µM): 0.251
- relative viability (NVP-TAE684 + OSI-027; first compound 2 µM): 0.203

Cell Line: H3255
- relative viability (CUDC-101 + Navitoclax; first compound 0.01 µM): 0.688
- relative viability (CUDC-101 + Navitoclax; first compound 0.03162 µM): 0.435
- relative viability (CUDC-101 + Navitoclax; first compound 0.1 µM): 0.174
- relative viability (CUDC-101 + Navitoclax; first compound 0.3162 µM): 0.126
- relative viability (CUDC-101 + Navitoclax; first compound 1 µM): 0.0597
- relative viability (NVP-TAE684 + Linsitinib; first compound 0.2 µM): 0.903
- relative viability (NVP-TAE684 + Linsitinib; first compound 0.6325 µM): 0.927
- relative viability (NVP-TAE684 + Linsitinib; first compound 2 µM): 0.69
- relative viability (Vandetanib + Olaparib; first compound 0.02 µM): 0.516
- relative viability (Vandetanib + Olaparib; first compound 0.06325 µM): 0.518
- relative viability (Vandetanib + Olaparib; first compound 0.2 µM): 0.594
- relative viability (Vandetanib + Olaparib; first compound 0.6325 µM): 0.509
- relative viability (Vandetanib + Olaparib; first compound 2 µM): 0.27
- relative viability (NVP-TAE684 + AZD7762; first compound 0.2 µM): 0.939
- relative viability (NVP-TAE684 + AZD7762; first compound 0.6325 µM): 0.823
- relative viability (NVP-TAE684 + AZD7762; first compound 2 µM): 0.881
- relative viability (NVP-TAE684 + OSI-027; first compound 0.2 µM): 0.531
- relative viability (NVP-TAE684 + OSI-027; first compound 0.6325 µM): 0.602
- relative viability (NVP-TAE684 + OSI-027; first compound 2 µM): 0.4

Cell Line: HARA
- relative viability (CUDC-101 + Navitoclax; first compound 0.01 µM): 1.13
- relative viability (CUDC-101 + Navitoclax; first compound 0.03162 µM): 1.16
- relative viability (CUDC-101 + Navitoclax; first compound 0.1 µM): 1.09
- relative viability (CUDC-101 + Navitoclax; first compound 0.3162 µM): 1.14
- relative viability (CUDC-101 + Navitoclax; first compound 1 µM): 0.837
- relative viability (NVP-TAE684 + Linsitinib; first compound 0.2 µM): 0.985
- relative viability (NVP-TAE684 + Linsitinib; first compound 0.6325 µM): 0.929
- relative viability (NVP-TAE684 + Linsitinib; first compound 2 µM): 0.474
- relative viability (Vandetanib + Olaparib; first compound 0.02 µM): 0.624
- relative viability (Vandetanib + Olaparib; first compound 0.06325 µM): 0.821
- relative viability (Vandetanib + Olaparib; first compound 0.2 µM): 0.681
- relative viability (Vandetanib + Olaparib; first compound 0.6325 µM): 0.867
- relative viability (Vandetanib + Olaparib; first compound 2 µM): 0.883
- relative viability (NVP-TAE684 + AZD7762; first compound 0.2 µM): 0.305
- relative viability (NVP-TAE684 + AZD7762; first compound 0.6325 µM): 0.286
- relative viability (NVP-TAE684 + AZD7762; first compound 2 µM): 0.258
- relative viability (NVP-TAE684 + OSI-027; first compound 0.2 µM): 0.538
- relative viability (NVP-TAE684 + OSI-027; first compound 0.6325 µM): 0.351
- relative viability (NVP-TAE684 + OSI-027; first compound 2 µM): 0.281

Cell Line: HCC-15
- relative viability (CUDC-101 + Navitoclax; first compound 0.01 µM): 0.689
- relative viability (CUDC-101 + Navitoclax; first compound 0.03162 µM): 0.69
- relative viability (CUDC-101 + Navitoclax; first compound 0.1 µM): 0.762
- relative viability (CUDC-101 + Navitoclax; first compound 0.3162 µM): 0.678
- relative viability (CUDC-101 + Navitoclax; first compound 1 µM): 0.566
- relative viability (NVP-TAE684 + Linsitinib; first compound 0.2 µM): 0.84
- relative viability (NVP-TAE684 + Linsitinib; first compound 0.6325 µM): 0.866
- relative viability (NVP-TAE684 + Linsitinib; first compound 2 µM): 0.601
- relative viability (Vandetanib + Olaparib; first compound 0.02 µM): 0.72
- relative viability (Vandetanib + Olaparib; first compound 0.06325 µM): 0.677
- relative viability (Vandetanib + Olaparib; first compound 0.2 µM): 0.782
- relative viability (Vandetanib + Olaparib; first compound 0.6325 µM): 0.713
- relative viability (Vandetanib + Olaparib; first compound 2 µM): 0.722
- relative viability (NVP-TAE684 + AZD7762; first compound 0.2 µM): 1.11
- relative viability (NVP-TAE684 + AZD7762; first compound 0.6325 µM): 1.36
- relative viability (NVP-TAE684 + AZD7762; first compound 2 µM): 0.806
- relative viability (NVP-TAE684 + OSI-027; first compound 0.2 µM): 0.631
- relative viability (NVP-TAE684 + OSI-027; first compound 0.6325 µM): 0.525
- relative viability (NVP-TAE684 + OSI-027; first compound 2 µM): 0.381
